{"source": "patent US12251400B2", "about": "“Liquid concentrates of calcium and magnesium” (BIOLINK LIFE SCIENCES, INC., priority 2019, dated 2025)", "test": "In vitro assessment of phosphate binding", "conditions": "24 hours post-mixing", "protocol": "Test Preparations: Solutions of the test article (calcium propionate and magnesium propionate) and control article (calcium acetate) are prepared in deionized, purified water having 18 MO or greater resistance. The pH of each solution is adjusted to the desired value by the addition of concentrated hydrochloric acid or sodium hydroxide, as appropriate.\nTests and Assays: An HPLC method with conductivity detection was developed and validated for use in the determination of propionate, acetate and phosphate. HPLC analysis is performed using a Dionex Aquion ion chromatography system Detection of the anionic species is enabled using a Dionex ED50 Electrochemical Detector, operating in Conductivity Mode. Limits of Detection and Quantitation are enhanced through the use of a Dionex Anion Self-Regenerating Suppressor. After assay-specific development and verification of assay performance is completed, the analysis of phosphate and propionate or acetate is performed by sampling the test solution and diluting it, if necessary, to a concentration within the linear range of the Assay. The sample is then injected onto the HPLC column and eluted with a sodium hydroxide gradient. Data is acquired using Dionex Chromeleon® software. […]"}
{"smiles": "CC(=O)[O-].CC(=O)[O-].[Ca+2]", "note": "[calcium acetate]", "values": [{"measurement": "Pi binding", "setting": "pH 4.5", "value": "about 60%"}, {"measurement": "Pi binding", "setting": "pH 6.8", "value": "over 90%"}]}
